System: bone marrow suppression induced by cyclophosphamide in KM-mice
Assay: Pharmacodynamic experiment: cyclophosphamide-induced bone marrow suppression, peripheral blood counts
Format: in vivo
Experimental: 1. Experimental Materials, Reagents, Apparatus
Test drugs were ziyuglycoside II micelles and ziyuglycoside II powder.
Tool drug was cyclophosphamide.
Laboratory animals were KM-mice: 18.5-22.5 g.
Laboratory apparatus: Automatic blood counting analyzer; BS-600L electronic balance: specification: 600 g/0.1 g, Shanghai Yousheng Weighing Apparatus Co. Ltd.
Statistical analysis was performed using SPSS 17.0 software. Data were expressed as mean±standard error (x±S), and one-factor analysis of variance was used among groups. For homogeneity of variance, data between groups were compared by LSD test, while for heterogeneity of variance, data between groups were compared by Tamhane's T2 test.
After all animals were adaptively fed for one week, according to the body weight, animals were randomly divided as blank group; model group; ziyuglycoside II micelle sample groups 1-4 (respectively using micelles prepared in examples 1-4), with a dosage of 2.5 mg·kg^−1, preparation before use; ziyuglycoside II group: powder of ziyuglycoside II raw materials, dissolved in 10% DMSO-normal saline, with a dosage of 2.5 mg·kg^−1, preparation before use. On the first day of experiment, except for blank group, mice in other groups received cyclophosphamide normal saline solution at a dose of 120 mg·kg^−1 by peritoneal injection, and mice in blank group received the same volume of normal saline by peritoneal injection.
From the first day of experiment, each experimental group was given the corresponding drug as the predetermined dosage and administration mode, and mice in blank group and model group were given a same volume of normal saline by injection into the tail vein, for successive 6 days.
On the seventh day of experiment, whole blood was collected from orbit of mice in each experimental group, and placed in 0.5 ml EP tubes containing EDTA anticoagulant agent for test.
White blood cells (WBC), neutrophilic granulocytes (NEUT), red blood cells (RBC), platelets (PLT), and hemoglobin (HGB) in peripheral blood of mice in each experimental group were counted using automatic blood counting instrument.

[1] = cyclophosphamide 120 mg/kg i.p. day 1, drug 2.5 mg/kg for 6 days, blood on day 7, mean±standard error

Structure (SMILES): C[C@@H]1CC[C@]2(C(=O)O)CC[C@]3(C)C(=CC[C@@H]4[C@@]5(C)CC[C@H](O[C@@H]6OC[C@H](O)[C@H](O)[C@H]6O)C(C)(C)[C@@H]5CC[C@]43C)[C@@H]2[C@]1(C)O [Ziyuglycoside II, 3-O-α-L-arabinosyl-19α-hydroxyurs-12-en-28-oic acid]
- numbers of NEUT and HGB in peripheral blood compared with model group (2.5 mg/kg, P<0.05): did not show significant difference
- numbers of WBC, RBC, and PLT in peripheral blood compared with model group (2.5 mg/kg, P<0.05): did not show significant difference
- HGB in peripheral blood [1]: 44.65 ± 7.27 g/L
- NEUT in peripheral blood [1]: 2.47 ± 0.55 ×10^9
- PLT in peripheral blood [1]: 221.18 ± 6.15 ^ ×10^9
- RBC in peripheral blood [1]: 3.54 ± 0.11 ×10^12
- WBC in peripheral blood [1]: 3.71 ± 0.13 ×10^9

From US10493029B2, “Ziyuglycoside II polymer micelle and preparative methods thereof” (SICHUAN INLU WEITE PHARMACEUTICAL TECHNOLOGY CO., LTD., priority 2016, dated 2019)
